Patent publication US4698300A, “Process and reagent for the determination of α-amylase” (Merck Patent Gesellschaft mit beschrankter Haftung, priority 1983, dated 1987)

Assays:
[1] = pH dependency of the absorption; type: physicochemical; settings: reagent solution adjusted to pH 7.1, pH increased and decreased stepwise, FIG. 2, versus 4-nitrophenol
Description: Determination of α-amylase, pH dependency of the absorption
Under the same conditions as in Example 1, there are measured the extinctions of two reagent solutions adjusted to a pH value of 7.1, one of which contains 2-chloro-4-nitrophenol, the other 4-nitrophenol.

[2] = system: α-amylase; assay: determination of α-amylase, time-reaction curve with α-glucosidase and β-glucosidase, extinction at 405 nm; type: biochemical; settings: for extinction change per minute: substrate in α-amylase determination, FIG. 1, 405 nm, 30° C.
Description: For the determination of α-amylase, the reagent solution of substrate, α-glucosidase, β-glucosidase, buffer and activation agent is mixed with the sample solution and the extinction recorded at 405 nm e.g. at 30° C. Typically, 0.2-3.0 ml of reagent is mixed with 1.0-50 μl of sample for ordinary α-amylase concentrations.
Determination of α-amylase
A reagent composition is prepared which, per ml. of test volume, contains the following components: […]
2-chloro-4-nitrophenyl-β,D-
phosphate buffer (pH 6.8)
sodium chloride 0.05 Mol/l.
carrying out of the test: 1 ml. reagent + 10 μl. sample

[3] = optimum pH conditions of the α-amylase determination (6.8-7.1); cited from earlier work

O=[N+]([O-])c1ccc(O)c(Cl)c1 [2-chloro-4-nitrophenol]
influence of change of the pH value on the extinction [1]: less strongly influenced by change of the pH value

O=[N+]([O-])c1ccc(O[C@H]2O[C@H](CO)[C@@H](O[C@H]3O[C@H](CO)[C@@H](O[C@H]4O[C@H](CO)[C@@H](O[C@H]5O[C@H](CO)[C@@H](O[C@H]6O[C@H](CO)[C@@H](O[C@H]7O[C@H](CO)[C@@H](O[C@H]8O[C@H](CO)[C@@H](O)[C@H](O)[C@H]8O)[C@H](O)[C@H]7O)[C@H](O)[C@H]6O)[C@H](O)[C@H]5O)[C@H](O)[C@H]4O)[C@H](O)[C@H]3O)[C@H](O)[C@H]2O)c(Cl)c1 [2-chloro-4-nitrophenyl-α,D-maltoheptaoside, reference compound]
extinction change per minute [2]: 0.036

O=[N+]([O-])c1ccc(O[C@@H]2O[C@H](CO)[C@@H](O[C@H]3O[C@H](CO)[C@@H](O[C@H]4O[C@H](CO)[C@@H](O[C@H]5O[C@H](CO)[C@@H](O[C@H]6O[C@H](CO)[C@@H](O[C@H]7O[C@H](CO)[C@@H](O[C@H]8O[C@H](CO)[C@@H](O)[C@H](O)[C@H]8O)[C@H](O)[C@H]7O)[C@H](O)[C@H]6O)[C@H](O)[C@H]5O)[C@H](O)[C@H]4O)[C@H](O)[C@H]3O)[C@H](O)[C@H]2O)c(Cl)c1 [2-chloro-4-nitrophenyl-β,D-maltoheptaoside]
increase of the change of absorption (Δ E/min.) ([2]; line I in comparison with line III (4-nitrophenyl-α,D-maltoheptaoside), FIG. 1, Example 1): ~ 0.05 | factor of increase of extinction change per minute ([2]; relative to 4-nitrophenyl-α,D-maltoheptaoside, FIG. 1): 3 | extinction change per minute [2]: above 0.075

O=[N+]([O-])c1ccc(O[C@H]2O[C@H](CO)[C@@H](O[C@H]3O[C@H](CO)[C@@H](O[C@H]4O[C@H](CO)[C@@H](O[C@H]5O[C@H](CO)[C@@H](O[C@H]6O[C@H](CO)[C@@H](O[C@H]7O[C@H](CO)[C@@H](O[C@H]8O[C@H](CO)[C@@H](O)[C@H](O)[C@H]8O)[C@H](O)[C@H]7O)[C@H](O)[C@H]6O)[C@H](O)[C@H]5O)[C@H](O)[C@H]4O)[C@H](O)[C@H]3O)[C@H](O)[C@H]2O)cc1 [4-nitrophenyl-α,D-maltoheptaoside, reference compound]
extinction change per minute [2]: 0.024

O=[N+]([O-])c1ccc(O)cc1 [p-nitrophenol]
liberated p-nitrophenol present as colored phenolate anion [3]: about 50%
